Results reported in BindingDB's records for doi:10.1021/jm0303352 (National Center For Genetic Engineering and Biotechnology …, 2004).
pIC50: −log10 of the molar value.

What was measured:
[1] = In vitro antimalarial activity against Plasmodium falciparum TM4/8.2 wtDHFR
[2] = In vitro antimalarial activity against Plasmodium falciparum K1CB1 double DHFR mutant (C59R/S108N)
[3] = In vitro antimalarial activity relative to trimethoprim against Plasmodium falciparum TM4/8.2 wtDHFR
[4] = In vitro antimalarial activity against Plasmodium falciparum Csl-2 triple DHFR mutant (C59R/S108N/I164L)/
[5] = In vitro antimalarial activity against Plasmodium falciparum Vl/S with quadruple DHFR mutant (N51I/C59R/S108N/I164L)
[6] = In vitro antimalarial activity against Plasmodium falciparum K1CB1 double DHFR mutation (C59R/S108N) relative to trimethoprim
[7] = In vitro antimalarial activity against Plasmodium falciparum Csl-2 triple DHFR mutant (C59R/S108N/I164L) relative to trimethoprim
[8] = In vitro antimalarial activity relative to trimethoprim against Plasmodium falciparum Vl/S with quadruple DHFR mutant (N51I/C59R/S108N/I164L)

Structure (SMILES) | pIC50 [1] | pIC50 [2] | IC50 ratio [3] | pIC50 [4] | pIC50 [5] | IC50 ratio [6] | IC50 ratio [7] | IC50 ratio [8]
COc1ccc(Cc2cnc(N)nc2N)cc1OCc1ccccc1 [5-(3-Benzyloxy-4-methoxy-benzyl)-pyrimidine-2,4-diamine] | 4.76 | 5.42 | 2.62 | 5.24 | < 4.30 | 0.03 | 0.05 | 0.25
COc1cc(Cc2c(C)nc(N)nc2N)ccc1OCc1ccccc1 [5-(4-(benzyloxy)-3-methoxybenzyl)-6-methylpyrimidine-2,4-diamine] | 5.16 | 4.60 | 1.03 | 5.55 | 5.32 | 0.18 | 0.02 | –
CCc1nc(N)nc(N)c1Cc1ccc(OCc2ccccc2)c(OC)c1 [5-(4-Benzyloxy-3-methoxy-benzyl)-6-ethyl-pyrimidine-2,4-diamine] | 5.30 | 4.79 | 0.76 | 5.27 | 4.95 | 0.12 | 0.05 | –
COc1cc(Cc2cnc(N)nc2N)ccc1OCc1cc(OC)c(OC)c(OC)c1 [5-[3-Methoxy-4-(3,4,5-trimethoxy-benzyloxy)-benzyl]-pyrimidine-2,4-diamine] | 6.51 | 4.56 | 0.05 | 4.51 | 4.58 | 0.13 | 0.26 | –
